# Test results as given in ChEMBL document CHEMBL1137861, “Novel pyrazinone inhibitors of mast cell tryptase: synthesis and SAR evaluation” (Bioorg Med Chem Lett, 2004).
# Target: T1, Tryptase beta-1 (Homo sapiens, UniProt Q15661)
# Assay: Inhibitory activity against human Tryptase beta 2 expressed in yeast cells at 5 uM
# Assay type: cell-based
# T1 sequence (Q15661 31-275 limits assumed): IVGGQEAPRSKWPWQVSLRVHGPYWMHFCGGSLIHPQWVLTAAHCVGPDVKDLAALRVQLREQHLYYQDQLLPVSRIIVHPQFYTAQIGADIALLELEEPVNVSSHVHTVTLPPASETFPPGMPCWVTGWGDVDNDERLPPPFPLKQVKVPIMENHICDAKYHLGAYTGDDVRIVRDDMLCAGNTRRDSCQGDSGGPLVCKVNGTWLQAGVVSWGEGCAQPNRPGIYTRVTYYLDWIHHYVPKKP
row,Compound,inhibition [%]
1,Cc1c(Cl)nc(N[C@H]2CC[C@H](N)CC2)c(=O)n1CC(=O)Nc1ccc(C(N)=O)cc1,31
2,Cc1c(Cl)nc(N[C@H]2CC[C@H](N)CC2)c(=O)n1CC(=O)Nc1cccc(C(N)=O)c1,18
3,Cc1c(Cl)nc(N[C@H]2CC[C@H](N)CC2)c(=O)n1CC(=O)Nc1ccc(N)cc1,29
4,Cc1c(Cl)nc(N[C@H]2CC[C@H](N)CC2)c(=O)n1CC(=O)NC1CCC(N)CC1 (some centres undefined),2
5,Cc1c(Cl)nc(N[C@H]2CC[C@H](N)CC2)c(=O)n1CC(=O)Nc1cccc(N)c1,7
6,Cc1c(Cl)nc(N[C@H]2CC[C@H](N)CC2)c(=O)n1CC(=O)Nc1ccc(CN)cc1,16
7,Cc1c(Cl)nc(N[C@H]2CC[C@H](N)CC2)c(=O)n1CC(=O)NCCc1c[nH]cn1,8

# Target: T1, Tryptase beta-1
# Assay: Inhibitory activity against human Tryptase beta 2 expressed in yeast cells at 5 uM; not active
# Assay type: cell-based
row,Compound,inhibition [%]
1,Cc1c(Cl)nc(Nc2ccc(F)cc2)c(=O)n1CC(=O)Nc1cccc(CN)c1,24
2,Cc1c(Cl)nc(Nc2cccc(Cl)c2)c(=O)n1CC(=O)Nc1cccc(CN)c1,11
